Assay results from patent US20080227774A1, “5,5-DISUBSTITUTED-INDOLIZINONE COMPOUNDS” (priority 2007, published 2008).

Biological target: NS5B polymerase (Hepatitis C virus genotype 1b, UniProt P26663)
Test: HCV polymerase inhibition assay (FlashPlate)
Assay type: biochemical
Conditions: 20 nM enzyme, 75 min at 28° C.
Experimental: Compounds were tested for HCV polymerase inhibition. Assays were performed in a 96-well streptavidin-coated FlashPlate using 20 nM enzyme, 0.5 μCi of [α-^33P]GTP, 0.6 μM GTP, and 250 nM 5′biotinylated oligo (rG13)/poly rC in 20 mM Tris-HCl, pH 7.5, 5 mM MgCl2, 5 mM dithiothreitol, 0.1 g/L bovine serum albumin, and 100 U/ml RNAse inhibitor. The reaction was stopped by aspiration after 75 min at 28° C. and the plate was washed several times. After washing and drying the plate, incorporated radioactivity was counted using a Microbeta scintillation counter. IC50 values were calculated relative to the uninhibited control and inhibition data were fitted to a 4-parameter IC50 equation. For very potent inhibitors, the data were fitted to a tight binding quadratic equation to obtain IC50 values.

Sequence of NS5B polymerase (P26663 2420-3010): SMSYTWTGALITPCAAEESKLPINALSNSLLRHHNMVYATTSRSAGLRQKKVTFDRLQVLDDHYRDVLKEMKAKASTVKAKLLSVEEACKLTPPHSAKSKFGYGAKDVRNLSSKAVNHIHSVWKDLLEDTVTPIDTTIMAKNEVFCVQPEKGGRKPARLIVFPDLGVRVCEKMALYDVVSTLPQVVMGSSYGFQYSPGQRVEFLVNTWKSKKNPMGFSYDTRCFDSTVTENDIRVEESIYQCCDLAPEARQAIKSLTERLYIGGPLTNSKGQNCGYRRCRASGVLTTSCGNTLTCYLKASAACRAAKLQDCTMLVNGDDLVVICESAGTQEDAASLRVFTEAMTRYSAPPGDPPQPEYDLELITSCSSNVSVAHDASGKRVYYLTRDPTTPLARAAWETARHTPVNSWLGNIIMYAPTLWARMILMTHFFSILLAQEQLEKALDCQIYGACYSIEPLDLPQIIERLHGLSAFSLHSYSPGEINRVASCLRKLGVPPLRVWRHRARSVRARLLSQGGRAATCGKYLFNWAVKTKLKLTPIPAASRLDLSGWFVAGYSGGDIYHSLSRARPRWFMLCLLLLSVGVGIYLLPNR

IC50	Structure (SMILES)
< 50 µM	CC(C)CCC1(C)C(=O)C(C2=NS(=O)(=O)c3cc(NS(C)(=O)=O)ccc3N2)=C(O)c2cccn21 (stereo not shown) [Example 2, N-{3-[8-Hydroxy-5-methyl-5-(3-methylbutyl)-6-oxo-5,6-dihydroindolizin-7-yl]-1,1-dioxo-1,2-dihydro-1λ^6-benzo[1,2,4]thiadiazin-7-yl}methanesulfonamide]
< 50 µM	CC1(Cc2ccc(F)c(Cl)c2)C(=O)C(C2=NS(=O)(=O)c3cc(NS(C)(=O)=O)ccc3N2)=C(O)c2cccn21 (stereo not shown) [Example 4, N-{3-[5-(3-Chloro-4-fluoro-benzyl)-8-hydroxy-5-methyl-6-oxo-5,6-dihydro-indolizin-7-yl]-1,1-dioxo-1,4-dihydro-1λ^6-benzo[1,2,4]thiadiazin-7-yl}-methanesulfonamide]
< 50 µM	CC(C)CCC1(C)C(=O)C(C2=Nc3ccccc3S(=O)(=O)N2)=C(O)c2cccn21 (stereo not shown) [Example 1, 7-(1,1-Dioxo-1,2-dihydro-1λ^6-benzo[1,2,4]thiadiazin-3-yl)-8-hydroxy-5-methyl-5-(3-methylbutyl)indolizin-6-one]
< 50 µM	C[C@]1(Cc2ccc(F)cc2)C(=O)C(C2=NS(=O)(=O)c3cc(NS(C)(=O)=O)ccc3N2)=C(O)c2cccn21 [Example 3, N-{3-[5-(S)-(4-Fluoro-benzyl)-8-hydroxy-5-methyl-6-oxo-5,6-dihydro-indolizin-7-yl]-1,1-dioxo-1,4-dihydro-1λ^6-benzo[1,2,4]thiadiazin-7-yl}-methanesulfonamide]
